In this data set the test system is GENE-TOX genotoxicity assays, various organisms and cells. The data set can be described thus: GENE-TOX mutagenicity studies. The settings on record: for call: Assay Type: In vivo carcinogenicity studies.
[1] abbreviates: Species/Cell Type: Nonhuman, Assay Type: Sister-chromatid exchange (SCE) in vivo, Assay Code: SC3+, Evaluation Type: Evaluation B (Post-1980).
Where [2] appears, read: Species/Cell Type: Salmonella typhimurium (one or more of the five standard strains: TA98, TA100, TA1535, TA1537, and TA1538), Assay Type: Histidine reverse gene mutation, Ames assay, Assay Code: SAL+*, Activation: With metabolic activation, Evaluation Type: Evaluation A (Pre-1980).
The mark [3] stands for this setting: Species/Cell Type: Saccharomyces cerevisiae, Assay Type: Mitotic recombination or gene conversion, Assay Code: YEC-, Evaluation Type: Evaluation A (Pre-1980).
Setting [4] is: Species/Cell Type: Bacillus subtilis (H17 vs M45), Assay Type: Rec-assay, spot test, DNA effects (bacterial DNA repair), Assay Code: REWT, Evaluation Type: Evaluation A (Pre-1980).
[5] abbreviates: Species/Cell Type: Nonhuman, Assay Code: CCG+, Evaluation Type: Evaluation A (Pre-1980).
Where [6] appears, read: Species/Cell Type: Salmonella typhimurium (one or more of the five standard strains: TA98, TA100, TA1535, TA1537, and TA1538), Assay Type: Histidine reverse gene mutation, Ames assay, Assay Code: SAL+, Evaluation Type: Evaluation A (Pre-1980).
The mark [7] stands for this setting: Species/Cell Type: Nonhuman, Assay Type: Sister-chromatid exchange (SCE) in vitro, Assay Code: SC2+D, Dose Response: With dose response, Evaluation Type: Evaluation B (Post-1980).
The mark [8] stands for this setting: Species/Cell Type: Saccharomyces cerevisiae, Assay Type: Mitotic recombination or gene conversion, Assay Code: YEC+, Evaluation Type: Evaluation A (Pre-1980).
Where [9] appears, read: Species/Cell Type: Hordeum vulgare (barley), Assay Type: Chromosome aberrations, Assay Code: HOC+, Evaluation Type: Evaluation A (Pre-1980).

Each structure is given as a SMILES string. Activity calls are given as the source filed them. How the calls were made is not given here.

Here are results for 19 molecules from PubChem BioAssay AID1259408 (Genetic Toxicology Data Bank (GENE-TOX), 2018).

`Cc1cc2c(c3ccc4ccccc4c13)CCC2=O`: the mutagenic call was “active; positive” (Species/Cell Type: Human lymphocytes, Assay Type: Sister-chromatid exchange (SCE) in vitro, Assay Code: SCL+D*, Activation: With metabolic activation, Dose Response: With dose response, Evaluation Type: Evaluation B (Post-1980)); “active; positive” (Species/Cell Type: Human, Assay Type: Sister-chromatid exchange (SCE) in vitro, Assay Code: SC1+D*, Activation: With metabolic activation, Dose Response: With dose response, Evaluation Type: Evaluation B (Post-1980)); “active; positive” under setting [1]; “active; positive” under setting [2].
With `CC(C)Oc1cc(-n2nc(C(C)(C)C)oc2=O)c(Cl)cc1Cl`, the mutagenic call under setting [3] was “inactive; negative”.
In the case of `O=S(=O)(O)c1ccc(N=Nc2cc(S(=O)(=O)O)c3ccccc3c2O)c2ccccc12`, the mutagenic call runs as follows: under setting [4], “no conclusion”; under setting [3], “inactive; negative”; (Species/Cell Type: Salmonella typhimurium (one or more of the five standard strains: TA98, TA100, TA1535, TA1537, and TA1538), Assay Type: Histidine reverse gene mutation, Ames assay, Assay Code: SAL-, Evaluation Type: Evaluation A (Pre-1980)) “inactive; negative”. Also, the call (Species/Cell Type: Nonhuman, Assay Code: CCG-, Evaluation Type: Evaluation A (Pre-1980)) was “inactive; negative”.
Consider `ONc1ccc2ccccc2c1`, for which the mutagenic call (Species/Cell Type: Chinese hamster ovary (CHO) cells, Assay Type: Forward gene mutation at the HPRT locus, Assay Code: CHO+, Evaluation Type: Evaluation B (Post-1980)) was “active; positive”; the mutagenic call (Species/Cell Type: Escherichia coli polA (W3119 vs P3478), Assay Type: Rec-assay, DNA effects (bacterial DNA repair), Assay Code: RE1+, Evaluation Type: Evaluation A (Pre-1980)) was “active; positive”; the mutagenic call (Species/Cell Type: Neurospora crassa, Assay Type: Forward gene mutation, Assay Code: NEF+, Evaluation Type: Evaluation A (Pre-1980)) is “active; positive”; the mutagenic call (Species/Cell Type: Saccharomyces cerevisiae, Assay Type: Mitotic recombination or gene conversion, Assay Code: YEH+, Evaluation Type: Evaluation A (Pre-1980)) is “active; positive”; the mutagenic call under setting [6] was “active; positive”; the mutagenic call (Species/Cell Type: Salmonella typhimurium, Assay Type: Forward and reverse gene mutation, host-mediated assay, Assay Code: HMA+, Evaluation Type: Evaluation A (Pre-1980)) is “active; positive”. For the same molecule, the call under setting [5] was “active; positive”.
Regarding `C1=CC2c3ccccc3OC2O1` (configuration not stated), under setting [2], the mutagenic call is “active; positive”.
Regarding `CC(C)=CC1C(C(=O)OCc2coc(Cc3ccccc3)c2)C1(C)C` (configuration not stated), the mutagenic call by setting is: (Species/Cell Type: Human diploid fibroblasts, Assay Type: Unscheduled DNA synthesis (UDS) in vitro, DNA effects, Assay Code: UDH-, Evaluation Type: Evaluation A (Pre-1980)) “inactive; negative”; (Species/Cell Type: Saccharomyces cerevisiae, Assay Type: Mitotic recombination or gene conversion, Assay Code: YEH-, Evaluation Type: Evaluation A (Pre-1980)) “inactive; negative”.
Turning to `O=C(CO)c1coc(=O)c2c(O)cccc12`, the mutagenic call under setting [4] is recorded as “no conclusion”.
For the molecule `COCC(O)Cn1ccnc1[N+](=O)[O-]` (configuration not stated), the mutagenic call is “active; positive” (Species/Cell Type: Escherichia coli WP2 UVRA, Assay Type: Tryptophan reverse gene mutation, Assay Code: WPU+D, Dose Response: With dose response, Evaluation Type: Evaluation A (Pre-1980)); “active; positive” (Species/Cell Type: Mouse (C3H/10T1/2) cells, Assay Type: Cell transformation, Assay Code: CTH+D, Dose Response: With dose response, Evaluation Type: Evaluation A (Pre-1980)); “active; positive” under setting [7]; “no conclusion” (Species/Cell Type: Nonhuman, Assay Type: Sister-chromatid exchange (SCE) in vivo, Assay Code: SC3T, Evaluation Type: Evaluation B (Post-1980)); “active; positive” under setting [6].
For `CCOP(=S)(NC(C)C)Oc1ccccc1C(=O)OC(C)C` (configuration not stated), the mutagenic call (Species/Cell Type: Nonhuman, Assay Type: Sister-chromatid exchange (SCE) in vitro, Assay Code: SC2-, Evaluation Type: Evaluation B (Post-1980)) is “inactive; negative”.
For `CNc1nncc2ccccc12`, the mutagenic call (Species/Cell Type: Human, Assay Type: Sister-chromatid exchange (SCE) in vitro, Assay Code: SC1+D, Dose Response: With dose response, Evaluation Type: Evaluation B (Post-1980)) was “active; positive” and the mutagenic call under setting [1] is “active; positive”.
As to `CC(N)Cc1ccccc1` (configuration not stated), the mutagenic call (Species/Cell Type: Drosophila melanogaster, Assay Type: Aneuploidy, sex chromosome gain, chromosome aberrations, Assay Code: DAGT, Evaluation Type: Evaluation A (Pre-1980)) is given as “no conclusion”; the mutagenic call (Species/Cell Type: Drosophila melanogaster, Assay Type: Aneuploidy, whole sex chromosome loss, chromosome aberrations, Assay Code: DACT, Evaluation Type: Evaluation A (Pre-1980)) is given as “no conclusion”; the mutagenic call (Species/Cell Type: Drosophila melanogaster, Assay Type: Sex-linked recessive lethal gene mutation, Assay Code: SRLT, Evaluation Type: Evaluation A (Pre-1980)) was “no conclusion”; the mutagenic call (Species/Cell Type: Mammalian polychromatic erythrocytes, Assay Type: Micronucleus test, chromosome aberrations, Assay Code: MNT+, Evaluation Type: Evaluation B (Post-1980)) is “active; positive”.
Take `CCCCCC(=O)N(C)N=O`: the mutagenic call under setting [8] is “active; positive”.
For `Cc1ccc2cc3c4c(ccc3c3c2c1CC3)C(O)C(O)C=C4` (configuration not stated), the mutagenic call (Species/Cell Type: Chinese hamster lung (V79) cells, Assay Type: Forward gene mutation at the HPRT or ouabain locus, Assay Code: V79+, Evaluation Type: Evaluation A (Pre-1980)) was “active; positive” and the mutagenic call under setting [2] was “active; positive”. Under “Species/Cell Type: Nonhuman, Assay Code: CCG+L, Evaluation Type: Evaluation A (Pre-1980)”, the call was “active; positive”.
Regarding `c1ccc2c(c1)ccc1[nH]c3ccc4ccccc4c3c12`, the call under setting [5] was “active; positive”.
As for `O=NN(CCCl)C(=O)NCCCCCNC(=O)N(CCCl)N=O`, the mutagenic call was “active; positive” (Species/Cell Type: Drosophila melanogaster, Assay Type: Sex-linked recessive lethal gene mutation, Assay Code: SRL+, Evaluation Type: Evaluation A (Pre-1980)) and “active; positive” under setting [8].
For `CC(C)OC(=O)Nc1cccc(Cl)c1`, the mutagenic call by setting is: under setting [9], “active; positive”; (Species/Cell Type: Mammalian polychromatic erythrocytes, Assay Type: Micronucleus test, chromosome aberrations, Assay Code: MNTT, Evaluation Type: Evaluation A (Pre-1980)) “no conclusion”; (Species/Cell Type: Mouse, Sex: Male, Assay Type: Sperm morphology, Assay Code: SPI-, Evaluation Type: Evaluation A (Pre-1980)) “inactive; negative”; (Species/Cell Type: Nonhuman, Assay Type: Sister-chromatid exchange (SCE) in vitro, Assay Code: SC2+, Evaluation Type: Evaluation B (Post-1980)) “active; positive”.
Consider `Cc1cc(C)cc(O)c1`, for which the mutagenic call (Species/Cell Type: Allium cepa, Assay Type: Chromosome aberrations, Assay Code: ALCT, Evaluation Type: Evaluation A (Pre-1980)) is reported as “no conclusion”.
As to `O=CONC(=O)c1ccc2ccccc2c1`, under setting [7], the mutagenic call was “active; positive”.
As for `O=C(CCCCCCCCC(=O)N1CC1)N1CC1`, the mutagenic call was “active; positive” under setting [9] and “active; positive” (Species/Cell Type: Vicia faba, Assay Type: Chromosome aberrations, Assay Code: VIC+D, Dose Response: With dose response, Evaluation Type: Evaluation A (Pre-1980)).
